# Test results: patent US11298346B2, “Methods for treatment of fibrotic diseases” (Beta Cat Pharmaceuticals, Inc., priority 2017, dated 2022)
# Several values for one entry are separate records, joined by “and”; a condition that tells them apart may be missing. Identical values can stand only once.
# How the values were obtained:
# TBL1 = biological target: T1, TBL1 (Homo sapiens, UniProt O60907); settings: background statement, no method given; cited from earlier work
# T1 sequence (O60907 1-577): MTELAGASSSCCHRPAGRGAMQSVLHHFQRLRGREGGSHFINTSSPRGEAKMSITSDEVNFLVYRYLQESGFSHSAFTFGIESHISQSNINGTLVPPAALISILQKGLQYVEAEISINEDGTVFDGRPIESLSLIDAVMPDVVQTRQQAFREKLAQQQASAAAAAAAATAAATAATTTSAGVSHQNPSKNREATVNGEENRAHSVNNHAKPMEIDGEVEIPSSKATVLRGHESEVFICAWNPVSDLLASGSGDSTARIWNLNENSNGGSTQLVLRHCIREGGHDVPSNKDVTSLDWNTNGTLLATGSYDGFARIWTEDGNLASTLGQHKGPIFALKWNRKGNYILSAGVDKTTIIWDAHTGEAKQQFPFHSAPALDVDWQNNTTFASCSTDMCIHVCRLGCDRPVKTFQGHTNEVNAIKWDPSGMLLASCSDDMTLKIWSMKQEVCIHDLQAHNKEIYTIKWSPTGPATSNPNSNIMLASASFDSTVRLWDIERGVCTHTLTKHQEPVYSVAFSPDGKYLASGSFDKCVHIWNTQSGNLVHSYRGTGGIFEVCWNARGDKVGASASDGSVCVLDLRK
# [1] = tested on: CTNNB1, EGR1, NRG1 and WISP1 mRNA levels; assay: TaqMan gene expression analyses in DD180, PF180 and CT38 cells; assay type: cell-based, human
# Protocol: (§1) Tegavivint (BC-2059) powder was reconstituted it in 100% dimethyl sulfoxide (DMSO) to a 10_mM stock solution. The stock was diluted to 100 nM in serum-free media (α minimal essential medium, αMEM), and further diluted to 100 pM in serum-free αMEM immediately before the analyses were performed. Serial dilutions from 100 pM down to 0.78 pM were assessed in various assays. 0.001% DMSO in αMEM was used as the vehicle control, and αMEM alone was used as an untreated control, in a subset of analyses.
# Gene expression analyses were assessed in triplicate on a Real-Time PCR ABI Prism 7500. Total RNA samples were derived from syngeneic DD and PF cells cultured from the explant tissues from one patient with Dupuytren's disease (DD180 and PF 180) and 1 patient with no history of Dupuytren's disease (CT38) as a normal allogeneic control. RNA quality was assessed on an Agilent 2100 Bioanalyzer and 2 μg of high quality total RNA was reverse transcribed into cDNA first strand using the High-Capacity cDNA Archive Kit (Applied Biosystems) in accordance with the manufacturer's instructions. TaqMan gene expression assays were used to measure CTNNB1, EGR1, NRG1 and WISP1 mRNA levels after 48 hrs of treatment in cells cultured on type-1 collagen coated 6 well trays. The ΔΔCT method was used after confirmation of parallel PCR amplification efficiencies of target and housekeeping genes PCR reactions were carried out under the following conditions: Initial denaturation at 95° C. for 5 min followed by cycles of denaturation (95° C. for 15 sec), primer annealing (60° C. for 1 min) and transcript extension ([…]) for 40 cycles.
# [2] = tested on: syngeneic primary palmar fascia fibroblasts derived from visibly non-fibrotic palmar fascia (PF249 cells); assay: Alamar Blue proliferation/viability assay, PF249 cells; assay type: cell-based, human; settings: for proliferation/viability: PF249 cells, 48 and 72 hrs relative to 24 hrs
# Protocol: as §1
# Proliferation/viability analyses were performed in triplicate on primary palmar fascia fibroblasts derived from the fibrotic palmar fascia (DD cells) of 2 patients with Dupuytren's disease (DD249, DD77) and syngeneic primary palmar fascia fibroblasts derived from visibly non-fibrotic palmar fascia (PF cells) from these patients (PF249, PF77). Cells were cultured on type-1 collagen coated 96 well trays for these analyses to better replicate substrate interactions in vivo. Two independent assays were used for these analyses: Alamar Blue assays for analyses up to 72 hrs in cells derive from 1 patient, and Water Soluble Tetrazolium-(WST-1) assays for analyses up to 24 hrs in cells derived from the other patients. Significant effects of treatment on proliferation over time were detected by ANOVA repeated measures.
# [3] = Lung concentration after nebulizing delivery of Tegavivint formulations (whole body exposure); assay type: in vivo, bcat-Ex3 mice; settings: mouse lung, individual animals, listed as BC2059
# Protocol: Tegavivint particles suspended in Poloxamer 188/sorbitol at a concentration of 25 mg/mL were used. These formulations were applied to the mice in the form of aerosols, through the method of whole body exposure. The mice were placed inside a plastic box. This box was sealed and connected by one of its sides to the outlet of the nebulizer device, and on the other side to a system of closed water. The whole procedure was carried out inside the fume hood of the animal room.
# For the first experiment, the nebulizer kit of SATER LABS was used. This device uses the jet system. The device was primed with 5 ml of the drug, i.e. 125 mg of tegavivint (BC2059), for each group of 5 mice, and then the device was connected to the power source for nebulization. The energy was supplied by a DeVilbiss compressor model 646, which allows 5-7 pounds of pressure, and a flow of 6-8 liters per minute. For the second experiment, the device used was the Altera, ultrasonic nebulizer.
# For the two experiments, 10 male bcat-Ex3 mice were used for each set. These mice were separated into 2 groups of 5 mice each. The first group received the drug daily, for 5 consecutive days. The second group received the drug only once (the fifth day). On day 5 all mice were sacrificed, lung harvested, and samples were stored at −30 degrees, in two labeled nylon bags, each containing the 5 samples from each group.
# [4] = tested on: bleomycin-induced pulmonary fibrosis; assay: Bleomycin-induced pulmonary fibrosis mouse model, intranasal Tegavivint; assay type: in vivo, C57BL/6 wild-type mice; settings: 5 mg/kg biw intranasal
# Protocol: In another pilot study, Tegavivint at 5 mg/kg was administered biw (twice a week) via intranasal delivery to C57BL/6 wild-type mice. Bleomycin was administered to the mice intratracheally on day 0 to induce pulmonary fibrosis, and Tegavivint or the vehicle (5% dextrose in water) was administered on days 6, 10, 14, 18 and 21. The purpose of this experiment was to evaluate the effect of topically-administered Tegavivint on bleomycin-induced pulmonary fibrosis in vivo.
# [5] = ≤25 pM, 48 hrs, DD180, PF180, CT38 cells
# [6] = Aerosol jet nebulizer (Sater Labs), 1 day (single-dose on Day 5)
# [7] = Aerosol jet nebulizer (Sater Labs), 5 day (5 daily doses on Days 1-5)
# [8] = Nebulizer ultrasonic eRapid (Altera), 1 day (single-dose on Day 5)
# [9] = Nebulizer ultrasonic eRapid (Altera), 5 day (5 daily doses on Days 1-5)
# [10] = Topical Tegavivint alone (no bleomycin)
substance,measurement,setting,value
Tegavivint,interaction with TBL1,TBL1,interact with TBL1
same,effects on the expression of genes that associate with nuclear β-catenin,[1]; cells treated with ≥25 pM,No discernible effects
same,effects on gene expression,[1]; ≤25 pM,did not identify any consistent effects
same,CTNNB1 expression,[1]; [5],no evidence of a compensatory increase
same,EGR1 expression levels,[1]; [5],did not see any evidence of BC-2059-induced changes
same,NRG1 expression levels,[1]; [5],did not see any evidence of BC-2059-induced changes
same,WISP1 expression levels,[1]; [5],did not see any evidence of BC-2059-induced changes
same,proliferation/viability,[2]; 25 pM,proliferated to significantly greater cell numbers
same,proliferation/viability,[2]; 50 pM,proliferated to significantly greater cell numbers
same,cytotoxic concentrations,"[2]; syngeneic fibroblasts from visibly unaffected palmar fascia, both proliferation/viability assays and visual inspection",> 100 pM
same,Lung Concentration (ng/g),[3]; [6],5040 ng/g and 16800 ng/g and 56800 ng/g and 5200 ng/g and 17100 ng/g
same,Lung Concentration (ng/mL),[3]; [6],1260 ng/mL and 4190 ng/mL and 14200 ng/mL and 1300 ng/mL and 4270 ng/mL
same,Lung Concentration (ng/g),[3]; [7],18600 ng/g and 6600 ng/g and 14500 ng/g and 12300 ng/g and 14200 ng/g
same,Lung Concentration (ng/mL),[3]; [7],4640 ng/mL and 1650 ng/mL and 3620 ng/mL and 3080 ng/mL and 3550 ng/mL
same,Lung Concentration (ng/g),[3]; [8],11400 ng/g and 11600 ng/g and 34600 ng/g and 15100 ng/g and 2400 ng/g
same,Lung Concentration (ng/mL),[3]; [8],2840 ng/mL and 2910 ng/mL and 8660 ng/mL and 3780 ng/mL and 601 ng/mL
same,Lung Concentration (ng/g),[3]; [9],19100 ng/g and 17200 ng/g and 18800 ng/g and 12200 ng/g and 22900 ng/g
same,Lung Concentration (ng/mL),[3]; [9],4770 ng/mL and 4290 ng/mL and 4690 ng/mL and 3040 ng/mL and 5730 ng/mL
same,pulmonary compliance,"[4]; Tegavivint after bleomycin, compared to bleomycin only",showed a trend towards increased compliance
same,soluble collagen content,"[4]; Tegavivint after bleomycin, compared with bleomycin-only",significantly decreased the collagen level
same,pulmonary compliance,[4]; [10],caused an increase in compliance
same,soluble collagen content,[4]; [10],showed a slight increase in collagen
